Results as given in PubChem BioAssay AID1259407 (Chemical Carcinogenesis Research Information System (CCRIS), 2018).
The source made the active and inactive calls. How the calls were made is not given here.

Tested on: CCRIS mutagenicity, Ames/micronucleus/aberration tests
Assay: CCRIS mutagenicity studies
[1] = Test System: AMES SALMONELLA TYPHIMURIUM, Strain/Indicator: TA98, Metabolic Activation: NONE, Method: PREINCUBATION
[2] = Test System: AMES SALMONELLA TYPHIMURIUM, Strain/Indicator: TA100, Metabolic Activation: NONE, Method: PREINCUBATION

Measured: mutagenic call

Cc1cccc(Br)c1
inactive: Test System: AMES SALMONELLA TYPHIMURIUM, Strain/Indicator: TA97, Metabolic Activation: HAMSTER, LIVER, S-9, AROCLOR 1254 (10%), Method: PREINCUBATION inactive; negative | Test System: AMES SALMONELLA TYPHIMURIUM, Strain/Indicator: TA97, Metabolic Activation: HAMSTER, LIVER, S-9, AROCLOR 1254 (30%), Method: PREINCUBATION inactive; negative | Test System: AMES SALMONELLA TYPHIMURIUM, Strain/Indicator: TA97, Metabolic Activation: NONE, Method: PREINCUBATION inactive; negative | Test System: AMES SALMONELLA TYPHIMURIUM, Strain/Indicator: TA97, Metabolic Activation: RAT, LIVER, S-9, AROCLOR 1254 (10%), Method: PREINCUBATION inactive; negative | Test System: AMES SALMONELLA TYPHIMURIUM, Strain/Indicator: TA97, Metabolic Activation: RAT, LIVER, S-9, AROCLOR 1254 (30%), Method: PREINCUBATION inactive; negative | Test System: AMES SALMONELLA TYPHIMURIUM, Strain/Indicator: TA98, Metabolic Activation: HAMSTER, LIVER, S-9, AROCLOR 1254 (10%), Method: PREINCUBATION inactive; negative | Test System: AMES SALMONELLA TYPHIMURIUM, Strain/Indicator: TA98, Metabolic Activation: HAMSTER, LIVER, S-9, AROCLOR 1254 (30%), Method: PREINCUBATION inactive; negative | [1] inactive; negative | Test System: AMES SALMONELLA TYPHIMURIUM, Strain/Indicator: TA98, Metabolic Activation: RAT, LIVER, S-9, AROCLOR 1254 (10%), Method: PREINCUBATION inactive; negative | Test System: AMES SALMONELLA TYPHIMURIUM, Strain/Indicator: TA98, Metabolic Activation: RAT, LIVER, S-9, AROCLOR 1254 (30%), Method: PREINCUBATION inactive; negative | Test System: AMES SALMONELLA TYPHIMURIUM, Strain/Indicator: TA100, Metabolic Activation: HAMSTER, LIVER, S-9, AROCLOR 1254 (10%), Method: PREINCUBATION inactive; negative | Test System: AMES SALMONELLA TYPHIMURIUM, Strain/Indicator: TA100, Metabolic Activation: HAMSTER, LIVER, S-9, AROCLOR 1254 (30%), Method: PREINCUBATION inactive; negative | [2] inactive; negative | Test System: AMES SALMONELLA TYPHIMURIUM, Strain/Indicator: TA100, Metabolic Activation: RAT, LIVER, S-9, AROCLOR 1254 (10%), Method: PREINCUBATION inactive; negative | Test System: AMES SALMONELLA TYPHIMURIUM, Strain/Indicator: TA100, Metabolic Activation: RAT, LIVER, S-9, AROCLOR 1254 (30%), Method: PREINCUBATION inactive; negative | Test System: AMES SALMONELLA TYPHIMURIUM, Strain/Indicator: TA1535, Metabolic Activation: HAMSTER, LIVER, S-9, AROCLOR 1254 (10%), Method: PREINCUBATION inactive; negative | Test System: AMES SALMONELLA TYPHIMURIUM, Strain/Indicator: TA1535, Metabolic Activation: HAMSTER, LIVER, S-9, AROCLOR 1254 (30%), Method: PREINCUBATION inactive; negative | Test System: AMES SALMONELLA TYPHIMURIUM, Strain/Indicator: TA1535, Metabolic Activation: NONE, Method: PREINCUBATION inactive; negative | Test System: AMES SALMONELLA TYPHIMURIUM, Strain/Indicator: TA1535, Metabolic Activation: RAT, LIVER, S-9, AROCLOR 1254 (10%), Method: PREINCUBATION inactive; negative | Test System: AMES SALMONELLA TYPHIMURIUM, Strain/Indicator: TA1535, Metabolic Activation: RAT, LIVER, S-9, AROCLOR 1254 (30%), Method: PREINCUBATION inactive; negative | Test System: AMES SALMONELLA TYPHIMURIUM, Strain/Indicator: TA1537, Metabolic Activation: HAMSTER, LIVER, S-9, AROCLOR 1254 (30%), Method: PREINCUBATION inactive; negative | Test System: AMES SALMONELLA TYPHIMURIUM, Strain/Indicator: TA1537, Metabolic Activation: NONE, Method: PREINCUBATION inactive; negative | Test System: AMES SALMONELLA TYPHIMURIUM, Strain/Indicator: TA1537, Metabolic Activation: RAT, LIVER, S-9, AROCLOR 1254 (30%), Method: PREINCUBATION inactive; negative

CN(C)C(=N)N(C)C
inactive: [1] inactive; negative | Test System: AMES SALMONELLA TYPHIMURIUM, Strain/Indicator: TA98, Metabolic Activation: RAT, LIVER, S-9, PCB, Method: PREINCUBATION inactive; negative | [2] inactive; negative | Test System: AMES SALMONELLA TYPHIMURIUM, Strain/Indicator: TA100, Metabolic Activation: RAT, LIVER, S-9, PCB, Method: PREINCUBATION inactive; negative

CC1CC(C(C)C(C)(C)O)O[C@H]2C[C@@]3(C)[C@@H]4CC[C@H]5C(C)(C)C(=O)CC[C@@]56C[C@@]46CC[C@]3(C)[C@@H]12 (stereo partly drawn)
inactive: End Point: IN VITRO MICRONUCLEUS, Test System: HUMAN PERIPHERAL LYMPHOCYTES, Metabolic Activation: NONE inactive; negative

O[C@H]1[C@@H]2O[C@@H]2c2c(ccc3ccc4ccccc4c23)[C@@H]1O
active: Test System: E. COLI, Strain/Indicator: CL101P, Metabolic Activation: NONE, Method: PREINCUBATION active; positive | Test System: E. COLI, Strain/Indicator: CL102P, Metabolic Activation: NONE, Method: PREINCUBATION active; positive | Test System: E. COLI, Strain/Indicator: CL103P, Metabolic Activation: NONE, Method: PREINCUBATION active; positive | Test System: E. COLI, Strain/Indicator: CL104P, Metabolic Activation: NONE, Method: PREINCUBATION active; positive | Test System: E. COLI, Strain/Indicator: CL105P, Metabolic Activation: NONE, Method: PREINCUBATION active; positive | Test System: E. COLI, Strain/Indicator: CL106P, Metabolic Activation: NONE, Method: PREINCUBATION active; positive

c1cc[n+]2c(c1)-c1cccc[n+]1CC2
inactive: Test System: AMES SALMONELLA TYPHIMURIUM, Strain/Indicator: TA102, Metabolic Activation: NONE, Method: STANDARD PLATE inactive; negative | Test System: AMES SALMONELLA TYPHIMURIUM, Strain/Indicator: TA2638, Metabolic Activation: NONE, Method: STANDARD PLATE inactive; negative | Test System: E. COLI, Strain/Indicator: WP2 (PKM101), Metabolic Activation: NONE, Method: STANDARD PLATE inactive; negative | Test System: E. COLI, Strain/Indicator: WP2 UVRA (PKM101), Metabolic Activation: NONE, Method: STANDARD PLATE inactive; negative
